Assay results: patent publication US20100056502A1, “COMPOUNDS” (GLAXO GROUP LIMITED, priority 2007, published 2010)
Structures can show the parent of a compound that is named as a salt.

Test system: Mycobacterium tuberculosis H37Rv
Experiment: Mycobacterium tuberculosis H37Rv Inhibition Assay
Assay type: cell-based
Conditions: ATCC 25618 / H37Rv, H37Rv strain (ATCC25618), resazurin fluorescence readout
Protocol: The measurement of the minimum inhibitory concentration (MIC) for each tested compound was performed in 96 wells flat-bottom, polystyrene microtiter plates. Ten two-fold drug dilutions in neat DMSO starting at 400 μM were performed. Five μl of these drug solutions were added to 95 μl of Middlebrook 7H9 medium. (Lines A-H, rows 1-10 of the plate layout). Isoniazid was used as a positive control, 8 two-fold dilution of Isoniazid starting at 160 μgml^−1 was prepared and 5 μl of this control curve was added to 95 μl of Middlebrook 7H9 (Difco catalogue Ref. 271310)+ADC medium (Becton Dickinson Catalogue Ref. 211887). (Row 11, lines A-H). Five μl of neat DMSO were added to row 12 (growth and Blank controls).
The inoculum was standardised to approximately 1×10^7 cfu/ml and diluted 1 in 100 in Middlebrook 7H9+ADC medium and 0.025% Tween 80 (Sigma P4780), to produce the final inoculum of H37Rv strain (ATCC25618). One hundred μl of this inoculum was added to the entire plate but G-12 and H-12 wells (Blank controls). All plates were placed in a sealed box to prevent drying out of the peripheral wells and they were incubated at 37° C. without shaking for six days. A resazurin solution was prepared by dissolving one tablet of resazurin (Resazurin Tablets for Milk Testing; Ref 330884Y VWR International Ltd) in 30 ml sterile PBS (phosphate buffered saline). 25 μl of this solution was added to each well. Fluorescence was measured (Spectramax M5 Molecular Devices, Excitation 530 nm, Emission 590 nm) after 48 hours to determine the MIC value.

`O=C1CSc2ccc(CNC3CCN(CC4CCn5c(=O)ccc6ccc(F)c4c65)CC3)nc2N1` (centres unmarked) [Example 10, 10-fluoro-1-[(4-{[(3-oxo-3,4-dihydro-2H-pyrido[3,2-b][1,4]thiazin-6-yl)methyl]amino}-1-piperidinyl)methyl]-2,3-dihydro-1H,5H-pyrido[3,2,1-ij]quinolin-5-one dihydrochloride] gave an MIC of at most 1.8 µg/mL.
Molecule `O=C1COc2ccc(CNC3CCN(CC4CCn5c(=O)ccc6ccc(F)c4c65)CC3)nc2N1` (centres unmarked) [Example 11, 10-fluoro-1-[(4-{[(3-oxo-3,4-dihydro-2H-pyrido[3,2-b][1,4]oxazin-6-yl)methyl]amino}-1-piperidinyl)methyl]-2,3-dihydro-1H,5H-pyrido[3,2,1-ij]quinolin-5-one dihydrochloride] has an MIC of at most 1.8 µg/mL.
For `O=C1COc2ccc(CN[C@H]3CCN(CC4CCn5c(=O)ccc6ccc(F)c4c65)C[C@H]3O)nc2N1` (stereo partly drawn) [Example 17, 10-fluoro-1-[((3R,4S)-3-hydroxy-4-{[(3-oxo-3,4-dihydro-2H-pyrido[3,2-b][1,4]oxazin-6-yl)methyl]amino}-1-piperidinyl)methyl]-2,3-dihydro-1H,5H-pyrido[3,2,1-ij]quinolin-5-one dihydrochloride], the MIC was at most 1.8 µg/mL.
`O=C1COc2ccc(CNC3CCN(CC4CCn5c(=O)sc6ccc(F)c4c65)CC3)nc2N1` (centres unmarked) [Example 32, 7-Fluoro-6-[(4-{[(3-oxo-3,4-dihydro-2H-pyrido[3,2-b][1,4]oxazin-6-yl)methyl]amino}-1-piperidinyl)methyl]-5,6-dihydro-4H-[1,3]thiazolo[5,4,3-ij]quinolin-2-one dihydrochloride] showed an MIC of at most 1.8 µg/mL.
For `O=C1COc2ccc(CNC3CCN(CC4CCN5C(=O)COc6ccc(F)c4c65)CC3)nc2N1` (centres unmarked) [Example 37, 8-Fluoro-7-[(4-{[(3-oxo-3,4-dihydro-2H-pyrido[3,2-b][1,4]oxazin-6-yl)methyl]amino}-1-piperidinyl)methyl]-6,7-dihydro-5H-[1,4]oxazino [2,3,4-ij]quinolin-3(2H)-one dihydrochloride], the MIC was at most 1.8 µg/mL.
